# From patent US9707229B2, “Compositions and methods for treating an infection” (CMPD LICENSING, LLC, priority 2015, dated 2017)
# Assays:
# Enterobacter aerogenes = assay: Expected efficacy of antibiotic agents; format: cell-based; conditions: Gram: neg
# Bartonella bacilliformis = assay: Expected efficacy of antibiotic agents; format: cell-based; conditions: Gram: neg
# Enterobacter sakazakii = assay: Expected efficacy of antibiotic agents; format: cell-based; conditions: Gram: neg
# Streptococcus pyogenes = assay: Expected efficacy of antibiotic agents; format: cell-based; conditions: Gram: pos
# Shigella boydii = assay: Expected efficacy of antibiotic agents; format: cell-based; conditions: Gram: neg
# Shigella sonnei = assay: Expected efficacy of antibiotic agents; format: cell-based; conditions: Gram: neg
# [1] = test system: Corynebacterium urealyticum; assay: Expected efficacy of antibiotic agents; format: cell-based; conditions: Gram: pos
# [2] = test system: gram-positive staphylococci and streptococci; conditions: general description, no test given; cited from earlier work
# Brucella species = format: cell-based; conditions: expected efficacy; Gram: neg
# [3] = test system: Klebsiella (Calymmatobacterium) granulomatis; assay: Expected efficacy of antibiotic agents; format: cell-based; conditions: Gram: neg
# Shigella dysenteriae = assay: Expected efficacy of antibiotic agents; format: cell-based; conditions: Gram: neg
# Proteus vulgaris = assay: Expected efficacy of antibiotic agents; format: cell-based; conditions: Gram: neg
# Pseudomonas fluorescens = assay: Expected efficacy of antibiotic agents; format: cell-based; conditions: Gram: neg
# Providencia stuartii = assay: Expected efficacy of antibiotic agents; format: cell-based; conditions: Gram: neg
# [4] = test system: Staphylococcus aureus (MSSA); assay: Expected efficacy of antibiotic agents; format: cell-based; conditions: Gram: pos
# Neisseria meningitidis = assay: Expected efficacy of antibiotic agents; format: cell-based; conditions: Gram: neg
# Rickettsiae = format: cell-based; conditions: expected efficacy; Gram: neg
# Morganella morganii = assay: Expected efficacy of antibiotic agents; format: cell-based; conditions: Gram: neg
# Citrobacter freundii = assay: Expected efficacy of antibiotic agents; format: cell-based; conditions: Gram: neg
# Campylobacter jejuni = assay: Expected efficacy of antibiotic agents; format: cell-based; conditions: Gram: neg
# Acinetobacter lwoffii = assay: Expected efficacy of antibiotic agents; format: cell-based; conditions: Gram: neg
# Haemophilus influenzae = assay: Expected efficacy of antibiotic agents; format: cell-based; conditions: Gram: neg
# Providencia rettgeri = assay: Expected efficacy of antibiotic agents; format: cell-based; conditions: Gram: neg
# Bordetella pertussis = assay: Expected efficacy of antibiotic agents; format: cell-based; conditions: Gram: neg
# Proteus mirabilis = assay: Expected efficacy of antibiotic agents; format: cell-based; conditions: Gram: neg
# Klebsiella oxytoca = assay: Expected efficacy of antibiotic agents; format: cell-based; conditions: Gram: neg
# Escherichia coli = assay: Expected efficacy of antibiotic agents; format: cell-based; conditions: Gram: neg
# Shigella flexneri = assay: Expected efficacy of antibiotic agents; format: cell-based; conditions: Gram: neg
# Corynebacterium jeikeium = assay: Expected efficacy of antibiotic agents; format: cell-based; conditions: Gram: pos
# Citrobacter diversus = assay: Expected efficacy of antibiotic agents; format: cell-based; conditions: Gram: neg
# Francisella tularensis = format: cell-based; conditions: expected efficacy; Gram: neg
# Klebsiella pneumoniae = assay: Expected efficacy of antibiotic agents; format: cell-based; conditions: Gram: neg
# Vibrio cholerae = assay: Expected efficacy of antibiotic agents; format: cell-based; conditions: Gram: neg
# Haemophilus ducreyi = assay: Expected efficacy of antibiotic agents; format: cell-based; conditions: Gram: neg
# Clostridium perfringens = format: cell-based; conditions: expected efficacy; Gram: anaer
# Pseudomonas aeruginosa = assay: Expected efficacy of antibiotic agents; format: cell-based; conditions: Gram: neg
# Moraxella catarrhalis = assay: Expected efficacy of antibiotic agents; format: cell-based; conditions: Gram: neg
# Neisseria gonorrhoeae = assay: Expected efficacy of antibiotic agents; format: cell-based; conditions: Gram: neg
# Enterobacter cloacae = assay: Expected efficacy of antibiotic agents; format: cell-based; conditions: Gram: neg
# Salmonella typhi = assay: Expected efficacy of antibiotic agents; format: cell-based; conditions: Gram: neg
# Serratia marcescens = assay: Expected efficacy of antibiotic agents; format: cell-based; conditions: Gram: neg
# [5] = test system: Methicillin resistant staph aureus (MRSA); assay: Expected efficacy of antibiotic agents; format: cell-based; conditions: Gram: pos
# Legionella pneumophila = format: cell-based; conditions: expected efficacy; Gram: neg
# Yersinia pestis = format: cell-based; conditions: expected efficacy; Gram: neg
# [6] = test system: Acinetobacter calcoaceticus; assay: Expected efficacy of antibiotic agents; format: cell-based; conditions: Gram: neg
# Acinetobacter baumannii = assay: Expected efficacy of antibiotic agents; format: cell-based; conditions: Gram: neg
smiles,measurement,setting,value
"C/C(=C\C(=O)OCCCCCCCCC(=O)O)C[C@@H]1OC[C@H](C[C@@H]2O[C@H]2[C@@H](C)[C@H](C)O)[C@@H](O)[C@H]1O [Bactroban, Mupirocin]",efficacy against Enterobacter aerogenes,Enterobacter aerogenes,no
same,efficacy against Bartonella bacilliformis,Bartonella bacilliformis,no
same,efficacy against Enterobacter sakazakii,Enterobacter sakazakii,no
same,efficacy against Streptococcus pyogenes,Streptococcus pyogenes,yes
same,efficacy against Shigella boydii,Shigella boydii,no
same,efficacy against Shigella sonnei,Shigella sonnei,no
same,efficacy against Corynebacterium urealyticum,[1],no
same,activity against gram-positive staphylococci and streptococci,[2],excellent activity
same,efficacy against Brucella species,Brucella species,no
same,efficacy against Klebsiella (Calymmatobacterium) granulomatis,[3],no
same,efficacy against Shigella dysenteriae,Shigella dysenteriae,no
same,efficacy against Proteus vulgaris,Proteus vulgaris,no
same,efficacy against Pseudomonas fluorescens,Pseudomonas fluorescens,no
same,efficacy against Providencia stuartii,Providencia stuartii,no
same,efficacy against Staphylococcus aureus (MSSA),[4],yes
same,efficacy against Neisseria meningitidis,Neisseria meningitidis,no
same,efficacy against Rickettsiae,Rickettsiae,no
same,efficacy against Morganella morganii,Morganella morganii,no
same,efficacy against Citrobacter freundii,Citrobacter freundii,no
same,efficacy against Campylobacter jejuni,Campylobacter jejuni,no
same,efficacy against Acinetobacter lwoffii,Acinetobacter lwoffii,no
same,efficacy against Haemophilus influenzae,Haemophilus influenzae,no
same,efficacy against Providencia rettgeri,Providencia rettgeri,no
same,efficacy against Bordetella pertussis,Bordetella pertussis,no
same,efficacy against Proteus mirabilis,Proteus mirabilis,no
same,efficacy against Klebsiella oxytoca,Klebsiella oxytoca,no
same,efficacy against Escherichia coli,Escherichia coli,no
same,efficacy against Shigella flexneri,Shigella flexneri,no
same,efficacy against Corynebacterium jeikeium,Corynebacterium jeikeium,no
same,efficacy against Citrobacter diversus,Citrobacter diversus,no
same,efficacy against Francisella tularensis,Francisella tularensis,no
same,efficacy against Klebsiella pneumoniae,Klebsiella pneumoniae,no
same,efficacy against Vibrio cholerae,Vibrio cholerae,no
same,efficacy against Haemophilus ducreyi,Haemophilus ducreyi,no
same,efficacy against Clostridium perfringens,Clostridium perfringens,no
same,efficacy against Pseudomonas aeruginosa,Pseudomonas aeruginosa,no
same,efficacy against Moraxella catarrhalis,Moraxella catarrhalis,no
same,efficacy against Neisseria gonorrhoeae,Neisseria gonorrhoeae,no
same,efficacy against Enterobacter cloacae,Enterobacter cloacae,no
same,efficacy against Salmonella typhi,Salmonella typhi,no
same,efficacy against Serratia marcescens,Serratia marcescens,no
same,efficacy against Methicillin resistant staph aureus (MRSA),[5],yes
same,efficacy against Legionella pneumophila,Legionella pneumophila,no
same,efficacy against Yersinia pestis,Yersinia pestis,no
same,efficacy against Acinetobacter calcoaceticus,[6],no
same,efficacy against Acinetobacter baumannii,Acinetobacter baumannii,no
